Patent EP0351921A2, “Modified beta adrenergic receptor” (MERCK & CO. INC., priority 1988, dated 1990)

What was measured:
[1] = molecular target: [Glu¹¹³]βAR (Mesocricetus auratus, UniProt P04274, D113E); assay: Adenylyl cyclase stimulation in membranes of cell lines expressing the receptor; settings: for %NaF: (Glu^113)βAR, percentage of maximal stimulation by 10 mM NaF, Table 3
[2] = molecular target: wild-type βAR ([Asp113]βAR) (Mesocricetus auratus, UniProt P04274); assay: as above; settings: for %NaF: (Asp^113)βAR, percentage of maximal stimulation by 10 mM NaF, Table 3; for maximal adenylyl cyclase stimulation (% of NaF): [Asp113]βAR, maximally effective concentration of the compound, relative to 10 mM NaF, Table 1
wild-type βAR ([Asp113]βAR), sequence (P04274 whole entry): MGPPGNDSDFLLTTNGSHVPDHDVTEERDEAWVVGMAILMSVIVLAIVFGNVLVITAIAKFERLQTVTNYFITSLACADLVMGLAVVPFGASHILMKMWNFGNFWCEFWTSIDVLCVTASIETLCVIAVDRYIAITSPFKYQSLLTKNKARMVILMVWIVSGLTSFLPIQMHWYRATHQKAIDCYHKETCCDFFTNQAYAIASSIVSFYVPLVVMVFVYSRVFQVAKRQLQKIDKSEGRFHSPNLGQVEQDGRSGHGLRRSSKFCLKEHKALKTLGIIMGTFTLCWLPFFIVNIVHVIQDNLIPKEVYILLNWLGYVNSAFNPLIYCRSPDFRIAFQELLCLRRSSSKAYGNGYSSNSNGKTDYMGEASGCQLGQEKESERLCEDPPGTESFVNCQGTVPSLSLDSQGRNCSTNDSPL

[3] = molecular target: T1, [Asn113]βAR (Mesocricetus auratus, UniProt P04274, D113N); assay: as above; assay type: biochemical, hamster; settings: for maximal adenylyl cyclase stimulation (% of NaF): [Asn113]βAR, maximally effective concentration of the compound, relative to 10 mM NaF, Table 1
T1 construct: pSVBAC contains the full length hamster β₂AR cDNA cloned into the EcoRI site of pSVL; expressed in transfected cells; host or cells: mouse L cells (clonal lines; membranes)
T1 sequence (P04274 whole entry D113N): as the sequence (P04274 whole entry) above, with D113N counted along it

[4] = molecular target: [LYS¹¹³]βAR (Mesocricetus auratus, UniProt P04274, D113K); settings: ligand concentrations as high as 1 mM
[LYS¹¹³]βAR, sequence (P04274 whole entry D113K): as the sequence (P04274 whole entry) above, with D113K counted along it

[5] = molecular target: [Cys¹¹³]βAR (Mesocricetus auratus, UniProt P04274, D113C); settings: ligand concentrations as high as 1 mM
[Cys¹¹³]βAR, sequence (P04274 whole entry D113C): as the sequence (P04274 whole entry) above, with D113C counted along it

[6] = molecular target: [Arg¹¹³]βAR (Mesocricetus auratus, UniProt P04274, D113R); settings: ligand concentrations as high as 1 mM
[Arg¹¹³]βAR, sequence (P04274 whole entry D113R): as the sequence (P04274 whole entry) above, with D113R counted along it

[7] = molecular target: [His¹¹³]βAR (Mesocricetus auratus, UniProt P04274, D113H); settings: ligand concentrations as high as 1 mM
[His¹¹³]βAR, sequence (P04274 whole entry D113H): as the sequence (P04274 whole entry) above, with D113H counted along it

[8] = maximum concentration 10⁻⁴ M (*)
[9] = maximum concentration 10⁻⁵ M (+)

[Glu¹¹³]βAR, sequence (P04274 whole entry D113E): as the sequence (P04274 whole entry) above, with D113E counted along it

SMILES: CC(C)NCC(O)COc1cccc2[nH]ccc12 (stereo not drawn) [Compound 2, pindolol]
- %NaF ([1]; maximum concentration 10⁻³ M): 35%
- %NaF ([2]; maximum concentration 10⁻³ M): 0%

SMILES: Cc1ccc(OCC(O)CNC(C)C)c2c1CCC2 (stereo not drawn) [Compound 3, 3-(7-methylindan-4-yloxy) -1-isopropylamino-2-propanol]
- %NaF ([1]; maximum concentration 10⁻³ M): 6%
- %NaF ([2]; maximum concentration 10⁻³ M): 0%

SMILES: CC(C)NCC(O)COc1ccccc1 (stereo not drawn) [Compound 4, 3-phenoxy-1-isopropylamino-2-propanol]
- %NaF ([1]; maximum concentration 10⁻³ M): 0%
- %NaF ([2]; maximum concentration 10⁻³ M): 0%

SMILES: CC(C)NCC(O)COc1ccc(-c2ncc[nH]2)cc1 (stereo not drawn) [Compound 5, 3-(4-(1-imidazol-2-yl)phenoxy)-1-isopropylamino-2-propanol]
- %NaF ([1]; maximum concentration 10⁻³ M): 0%
- %NaF ([2]; maximum concentration 10⁻³ M): 0%

SMILES: CC(C)NCC(O)COc1ccc(CC(N)=O)cc1 (stereo not drawn) [Compound 6, atenolol]
- %NaF [1, 8]: 0^* %
- %NaF [2, 9]: 0^+ %

SMILES: COCCc1ccc(OCC(O)CNC(C)C)cc1 (stereo not drawn) [Compound 7, metoprolol]
- %NaF [1, 8]: 2^* %
- %NaF [2, 9]: 0^+ %

SMILES: CC(C)NCC(O)COc1ccc(COCCOC(C)C)cc1 (stereo not drawn) [Compound 8, bisopropol]
- %NaF [1, 8]: 0^* %
- %NaF [2, 9]: 0^+ %

SMILES: CC(C)NCC(O)COc1ccccc1N1CCOCC1 (stereo not drawn) [Compound 9, 3-o-morpholinophenoxy-1-isopropylamino-2-propanol]
- %NaF ([1]; maximum concentration 10⁻³ M): 0%
- %NaF ([2]; maximum concentration 10⁻³ M): 0%

SMILES: N=C(N)NCC(O)c1ccc(O)c(O)c1 [L-612,158, 1-[2-(3,4-dihydroxyphenyl)-2-hydroxyethyl]guanidine]
- maximal adenylyl cyclase stimulation (% of NaF) [2]: 11%
- decrease in affinity of the interaction with the wild type βAR ([2]; versus isoproterenol): 1000 fold
- maximal adenylyl cyclase stimulation (% of NaF) [3]: 50%

SMILES: CC(C)NCC(O)c1ccc(O)c(O)c1 (stereo not drawn) [isoproterenol]
- decrease in affinity for the receptor ([1]; substitution of Glu for Asp¹¹³, versus wild-type receptor): 300 fold
- stimulation of adenylyl cyclase [4]: no stimulation
- stimulation of adenylyl cyclase [5]: no stimulation
- maximal adenylyl cyclase stimulation (% of NaF) [2]: 100%
- stimulation of adenylyl cyclase [6]: no stimulation
- stimulation of adenylyl cyclase [7]: no stimulation
- maximal adenylyl cyclase stimulation (% of NaF) [3]: 100%
- decrease in affinity for the receptor ([3]; substitution of Asn for Asp¹¹³, versus wild-type receptor): 5000 fold
